Laboratory results reported in patent US20110275672A1, “METHODS FOR TREATING CANCERS USING POLYMORPHIC FORMS OF 3-(4-AMINO-1-OXO-1,3 DIHYDRO-ISOINDOL-2-YL)-PIPERIDINE-2,6-DIONE” (Celgene Corporation, priority 2003, published 2011).
“And” between values parts separate entries of the source, which are not always exact repeats. Equal values may be shown once. Read-outs that look alike come from different tables or passages of the source. One block for each molecule: values may come before it.

Key:
MM.1S cells = assay: Inhibition of MM cell proliferation, [3H]-thymidine uptake, MM.1S; type: cell-based; details: for IC50: Homo sapiens, MM1.S
Description: (§1) The uptake of [^3H]-thymidine by different MM cell lines (MM.1S, Hs Sultan, U266 and RPMI-8226) was measured as an indicator of the cell proliferation.
(§2) Uptake [^3H]-thymidine by different MM cell lines (MM.1S, Hs Sultan, U266 and RPMI-8226) was measured as an indicator of cell proliferation. Cells were incubated in the presence of compounds for 48 hours; [^3H]-thymidine was included for the last 8 hours of the incubation period.

IL-2 = assay: Augmentation of IL-2 production following TCR activation of PBMC; type: cell-based
TNF-α production [1] = assay: Inhibition of TNF-α production following LPS-stimulation of human PBMC; type: cell-based
T-cells = assay: Stimulation of T-cell proliferation following primary induction by T-cell receptor (TCR) activation; type: cell-based
IFN-γ = assay: Augmentation of IFN-γ production following TCR activation of T-cells; type: cell-based
[2] = Phase 1 study in patients with solid tumors: dose limiting toxicity; type: in vivo; details: initial group of 20 patients with solid tumors, 5 escalated to 50 mg/day over 4 weeks
Description: Patients who, experienced clinical benefit were permitted to continue on treatment as Named Patients.
The study initially enrolled 20 patients and was subsequently amended to enroll 16 additional patients (adrenal carcinoma, NSCLC, malignant mesothelioma, breast cancer, metastatic melanoma (8), renal cell cancer (4)) at a higher dose. The 16 additional patients were given weekly escalating doses of 25 mg/day, 50 mg/day, 75 mg/day, 100 mg/day, 125 mg/day, and 150 mg/day over a 6-week period with continuing treatment for an additional six weeks.
The study design dictates that at least 3 patients must be enrolled at a dose level and have completed 28 days of treatment prior to enrollment of patients at the next higher dose level. […] Patients will be escalated to 10, 20, 25, and 30 mg/day provided there is no toxicity.
If, at any given dose level in either study, one out of three patients experiences toxicity, three additional patients must be treated at that particular dose. If, however, two out of six patients experience DLT, the MTD is judged to have been exceeded. No further dose escalations are to occur and additional patients are to be enrolled at the previous dose level. The dose of 3-(4-amino-l-oxo-1,3-dihydro-isoindol-2-yl)-piperidine-2,6-dione administered is escalated until the MTD is achieved or the maximum daily dose […] is reached.

[3] = Phase 1 studies in refractory or relapsed multiple myeloma patients: dose limiting toxicity; type: in vivo
Description: (§3) Patients started 3-(4-amino-1-oxo-1,3-dihydro-isoindol-2-yl) -piperidine -2,6-dione treatment at 5 mg/day with subsequent escalation to 10, 25, and 50 mg/day. […] Patients were evaluated for adverse events at each visit and the severity of these events was graded according to the National Cancer Institute (NCI) Common Toxicity Criteria. Patients were discontinued if they experienced DLT (Grade 3 or greater non-hematological, or Grade 4 hematological toxicity).
The second cohort of 3 patients subsequently commenced therapy at 10 mg/day.

IL-6 = assay: LPS-stimulated production of IL-6 by PBMC; type: cell-based
TNF-α production [4] = details: human PBMC, cited from earlier work; for IC50: LPS, read-out: IC50 for inhibiting production of TNF-α following LPS-stimulation of PBMC
IL-10 = assay: LPS-stimulated production of IL-10 by PBMC; type: cell-based
[5] = Phase 1 studies in refractory or relapsed multiple myeloma patients: pharmacokinetics; type: in vivo
Description: as §3
Blood and urine samples were collected for analysis of pharmacokinetic parameters on Days 1 and 28. Blood samples were collected according to the following sampling schedule: pre-dose, 0.25, 0.5, 0.75, 1, 1.5, 2, 2.5, 3, 4, 6, 8, 10, 12, 18, and 24 hours post-dose. In addition, a blood sample was collected at each weekly clinic visit for 3-(4-amino-1-oxo-1,3-dihydro-isoindol-2-yl)-piperidine-2,6-dione determination. Total urine was collected and pooled according to the following time intervals post-dose: 0 to 4, 4 to 8, 8 to 12, and 12 to 24 hours. […] Bone marrow aspirations and/or tissue biopsy are also performed at Months 3, 6 and 12 if a patient's paraprotein serum concentration or 24-hour urine protein excretion declined to the next lower level, based on best response criteria.

TNF-α production [6] = details: cited from earlier work; for IC50: human whole blood, LPS, read-out: IC50 for inhibiting production of TNF-α following LPS-stimulation of human whole blood
Hs Sultan cells = assay: Inhibition of MM cell proliferation, [3H]-thymidine uptake, Hs Sultan; type: cell-based
Description: as §1, §2

[7] = Cardiovascular and respiratory function in anesthetized dogs; type: in vivo, Beagle dogs
Excerpt: Two groups of Beagle dogs (2/sex/group) are used.

metastatic melanoma = assay: Treatment of metastatic melanoma patients; type: in vivo, human
Description: The dose was then increased every seven days to 10 mg/day, 25 mg/day, and 50 mg/day, respectively, for a total of four weeks on therapy.

[8] = LPS-stimulated production of IL-113 by PBMC; type: cell-based
[9] = Pharmacokinetics of Actimid in relapsed/refractory multiple myeloma patients; type: in vivo, human
Description: 6.5.1 Treatment of Relapsed Multiple Myeloma p 4-(Amino)-2-(2,6-dioxo(3-piperidyl))-isoindoline-1,3-dione (Actimid™) was administered to patients with relapsed/refractory multiple myeloma. The study was conducted in compliance with Good Clinical Practices. Patients were at least 18 years old, had been diagnosed with multiple myeloma (with paraprotein in serum and/or urine), and were considered refractory to treatment after at least two cycles of treatment, or have relapsed after two cycles of treatment.
Patients who have progressive disease, according to the Southwest Oncology Group (SWOG) criteria, on their prior regimen are considered treatment refractory. Relapse following remission is defined as >25% increase in M component from baseline levels; reappearance of the M paraprotein that had previously disappeared; or a definite increase in the size and number of lytic bone lesions recognized on radiographs. Patients may have had prior therapy with thalidomide, provided they were able to tolerate the treatment. A Zubrod performance status of 0 to 2 is required for all patients.
4-(Amino)-2-(2,6-dioxo(3-piperidyl))-isoindoline-1,3-dione is administered to patients at doses of 1, 2, 5, or 10 mg/day for up to four weeks; at each dose level, three patients are initially enrolled. Dosing occurs at approximately the same time each morning; all doses are administered in the fasted state (no eating for at least two hours prior to dosing and two hours after dosing). 4-(Amino)-2-(2,6-dioxo(3-piperidyl))-isoindoline-1,3-dione doses are administered in an ascending fashion such that patients in the first cohort receive the lowest dose of 4-(amino)-2-(2,6-dioxo(3-piperidyl))-isoindoline-1,3-dione (1 mg/day) and escalation to the next higher dose level occurs only following the establishment of safety and tolerability at the current dose. If one out of three patients at any dose level experience dose limiting toxicity (DLT), three additional patients are enrolled at that dose. If none of the three additional patients experience DLT, escalation to the next dose level occurs; dose escalations continue in a similar fashion until the MTD is established or the maximum daily dose (10 mg/day) is attained. However, if one of the three additional patients enrolled experiences DLT, the MTD has been reached. If two or more of the three additional patients enrolled experience DLT, the MTD is judged to have been exceeded and three additional patients are enrolled at the preceding dose level to confirm the MTD. Once the MTD has been identified, four additional patients are enrolled at that dose level so that a total of 10 patients is treated at the MTD.
Blood sampling for analysis of pharmacokinetic parameters is performed on Days 1 and 28 according to the following sampling schedule: pre-dose, 0.25, 0.5, 0.75, 1, 1.5, 2, 2.5, 3, 4, 6, 8, 10, 12, 18, and 24 hours post-dose. An additional blood sample is collected at each weekly visit for the determination of 4-(amino)-2-(2,6-dioxo(3-piperidyl))-isoindoline-1,3-dione levels. Total urine collections are also made with urine pooled according to the following time intervals post-dose: 0 to 4, 4 to 8, 8 to 12, and 12 to 24 hours. Safety assessments are made by monitoring adverse events, vital signs, ECGs, clinical laboratory evaluations (blood chemistry, hematology, lymphocyte phenotyping, and urinalysis), and physical examination at specific times during the study.

IC50 (MM.1S cells; read-out: concentration resulting in 50% inhibition of cell proliferation, MM.1S cells, 48 hours, [3H]-thymidine last 8 hours): 400 nM | accumulation with multiple dosing ([5]; human, in vivo): no evidence of accumulation | half-live in patients, mean ([5]; human, in vivo): 8 h | half-live in patients, range ([5]; human, in vivo): up to 17 hours | plasma concentration profile ([5]; human, in vivo): double peaks were observed | clearance compared to healthy volunteers ([5]; multiple myeloma patients): lower | exposure (Cmax and AUC) compared to healthy male volunteers ([5]; multiple myeloma patients): slightly higher
Compound: Nc1cccc2c1CN(C1CCC(=O)NC1=O)C2=O (centres unmarked) [3-(4-amino-1-oxo-1,3-dihydro-isoindol-2-yl)-piperidine-2,6-dione]
times more potent than thalidomide in augmenting the production of IL-2 (IL-2): 50-100 times | LPS-stimulated production of TNF-α by PBMC (TNF-α production [1]): dose-dependent inhibition | times more potent than thalidomide in stimulating the proliferation of T-cells (T-cells): 50-100 times | times more potent than thalidomide in augmenting the production of IFN-γ (IFN-γ): 50-100 times | DLTs [2]: No DLTs were reported | dose limiting toxicity (DLT) ([3]; 5 mg/day for 28 days, first cohort of 3 patients): without any dose limiting toxicity | tolerability ([3]; 10 mg/day, second cohort of 3 patients): tolerated treatment well | LPS-stimulated production of IL-6 by PBMC (IL-6): dose-dependent inhibition | IC50 (TNF-α production [4]): ~100 nM | IC50 for inhibiting production of TNF-α following LPS-stimulation of PBMC (TNF-α production [4]): 0.0259 µg/mL | production of the anti-inflammatory cytokine IL-10 (IL-10): increased production | IC50 for inhibiting production of TNF-α following LPS-stimulation of human whole blood (TNF-α production [6]): 0.1036 µg/mL | IC50 (TNF-α production [6]): ~480 nM | IC50 (Hs Sultan cells; read-out: concentration resulting in 50% inhibition of cell proliferation, 48 hours, [3H]-thymidine last 8 hours): 1000 nM | cardiovascular and respiratory changes compared to the vehicle control group ([7]; anesthetized Beagle dogs, all doses (2, 10, and 20 mg/kg), infusion through the jugular vein): minimal | increase in arterial blood pressure at higher doses ([7]; anesthetized dogs, higher doses (10, 20 mg/kg)): not seen at higher doses | duration of the increase in arterial blood pressure ([7]; anesthetized dogs, low dose): approximately 15 minutes | arterial blood pressure after small increase (from 94 mmHg) ([7]; anesthetized dogs, low dose (2 mg/kg), infusion): 101 mmHg | deviations in femoral blood flow, respiratory parameters, and Qtc interval ([7]; anesthetized dogs, common to control and treated groups): not considered treatment-related | patients showing disease stabilization or a partial response (metastatic melanoma; first four weeks of treatment, 5 escalated weekly to 10, 25, 50 mg/day): Five of the 13 | duration of response (metastatic melanoma; metastatic melanoma patients): approximately six | tumor response in cutaneous and subcutaneous lesions (metastatic melanoma; metastatic melanoma patients): five | tumor response in liver (metastatic melanoma; metastatic melanoma patients): one | tumor response in lymph nodes (metastatic melanoma; metastatic melanoma patients): two | LPS-stimulated production of IL-113 by PBMC [8]: dose-dependent inhibition

Compound: O=C1CCC(N2C(=O)c3ccccc3C2=O)C(=O)N1 (centres unmarked) [thalidomide, reference compound]
inhibition of cell proliferation (MM.1S cells; MM.1S cells, concentrations up to 100 μm, 48 hours): 15% | IC50 (TNF-α production [4]): ~194000 nM | IC50 for inhibiting production of TNF-α following LPS-stimulation of PBMC (TNF-α production [4]): 50.2 µg/mL | inhibition of cell proliferation (Hs Sultan cells; concentrations up to 100 μm, 48 hours): 20%

fold increase in AUC(01) with a 5-fold increase in dose ([9]; Day 1): 3.6 fold | fold increase in Cmax with a five-fold higher dose ([9]; Day 1): 3.2 fold | fold increase in AUC(01) with a 5-fold increase in dose ([9]; Week 4): 2.3 fold | fold increase in Cmax with a five-fold higher dose ([9]; Week 4): 2.2 fold | absorption ([9]; all dose levels, relapsed multiple myeloma patients): steadily absorbed | decline of plasma concentrations after reaching Cmax ([9]; human, in vivo): monophasic manner | median Tmax ([9]; human, in vivo): 3 to 4 h | CL/F ([9]; human, in vivo, 1 mg): 114.75 mL/min | CL/F ([9]; human, in vivo, 2 mg): 121.43 mL/min | CL/F ([9]; human, in vivo, 5 mg): 182.31 mL/min | t½ ([9]; human, in vivo, 5 mg): 6.5 h
Compound: Nc1cccc2c1C(=O)N(C1CCC(=O)NC1=O)C2=O (centres unmarked) [Actimid, 4-(Amino)-2-(2,6-dioxo(3-piperidyl))-isoindoline-1,3-dione]
IC50 (MM.1S cells; read-out: concentration achieving 50% inhibition of proliferation, MM.IS cells): 0.00273 µg/mL to 0.0273 µg/mL and 10 nM to 100 nM | IC50 (TNF-α production [4]): ~24 nM | IC50 for inhibiting production of TNF-α following LPS-stimulation of PBMC (TNF-α production [4]): 0.00655 µg/mL | IC50 for inhibiting production of TNF-α following LPS-stimulation of human whole blood (TNF-α production [6]): 0.00683 µg/mL | IC50 (TNF-α production [6]): ~25 nM | IC50 (Hs Sultan cells; read-out: concentration achieving 50% inhibition of proliferation): 0.00273 µg/mL to 0.0273 µg/mL and 10 nM to 100 nM
